Measurements taken from US7855166B2, “Sulfonylamino(thio)carbonyl compounds” (Bayer Cropscience GmbH, priority 2005, dated 2010).

How the values were obtained:
[1] = tested on: weed plants such as Sinapis alba, Chrysanthemum segetum, Avena sativa, Stellaria media, Echinochloa crus-galli, Lolium multiflorum, Setaria viridis, Abutilon …; assay: Pre-emergence effect on weeds (greenhouse pot test, visual scoring); assay type: in vivo; settings: applied pre-emergence at a rate of 0.3 kg or less of active substance per hectare; scored after 3 to 4 weeks in comparison to untreated controls
[2] = tested on: weed plants such as Sinapis alba, Echinochloa crus-galli, Lolium multiflorum, Chrysanthemum segetum, Setaria viridis, Abutilon theophrasti, Amaranthus …; assay: Post-emergence effect on weeds (greenhouse pot test, visual scoring); assay type: in vivo; settings: applied post-emergence (three-leaf stage) at a rate of 0.3 kg or less of active substance per hectare; scored after about 3 to 4 weeks in comparison to untreated controls

SMILES	herbicidal action against weed plants (visual scoring of plant damage or emergence damage) [1]	herbicidal action against weed plants (effect scored visually) [2]
COc1nn(C(=O)NS(=O)(=O)c2c(I)cccc2OCC(C)C)c(=O)n1C1CC1 [Compound 1.294]	very good herbidical action	very good herbicidal action
CCOc1nn(C(=O)NS(=O)(=O)c2c(I)cccc2OS(C)(=O)=O)c(=O)n1C1CC1 [Compound 1.717]	very good herbidical action	very good herbicidal action
COc1nn(C(=O)NS(=O)(=O)c2c(Cl)cc(C(F)(F)F)cc2I)c(=O)n1C1CC1 [Compound 1.846]	very good herbidical action	very good herbicidal action
COc1nn(C(=O)NS(=O)(=O)c2ccc(C(F)(F)F)cc2I)c(=O)n1C [Compound 1.893]	very good herbidical action	very good herbicidal action
COc1nn(C(=O)NS(=O)(=O)c2c(I)cccc2OCC(F)F)c(=O)n1C1CC1 [Compound 1.508]	very good herbidical action	very good herbicidal action
CCOc1nn(C(=O)NS(=O)(=O)c2c(Cl)ccc(Cl)c2I)c(=O)n1C [Compound 1.850]	very good herbidical action	very good herbicidal action
CCOc1nn(C(=O)NS(=O)(=O)c2cc(C)c(C)cc2I)c(=O)n1C1CC1 [Compound 1.867]	very good herbidical action	very good herbicidal action
CCCOc1nn(C(=O)NS(=O)(=O)c2cc(C(F)(F)F)ccc2I)c(=O)n1C [Compound 1.837]	very good herbidical action	very good herbicidal action
CCCOc1nn(C(=O)NS(=O)(=O)c2c(OC)ccc(Cl)c2I)c(=O)n1C1CC1 [Compound 1.822]	very good herbidical action	very good herbicidal action
CCCc1ccc(S(=O)(=O)NC(=O)n2nc(OC(C)C)n(C)c2=O)c(I)c1 [Compound 1.879]	very good herbidical action	very good herbicidal action
CCOc1nn(C(=O)NS(=O)(=O)c2c(I)cccc2OCC2CC2)c(=O)n1C1CC1 [Compound 1.356]	very good herbidical action	very good herbicidal action
CCCOc1nn(C(=O)NS(=O)(=O)c2cccc(Cl)c2I)c(=O)n1C [Compound 1.830]	very good herbidical action	very good herbicidal action
CCCOc1nn(C(=O)NS(=O)(=O)c2ccc(Cl)cc2I)c(=O)n1C [Compound 1.871]	very good herbidical action	very good herbicidal action
CCCOc1nn(C(=O)NS(=O)(=O)c2ccc(C(F)(F)F)cc2I)c(=O)n1C [Compound 1.894]	very good herbidical action	very good herbicidal action
CC(C)Oc1nn(C(=O)NS(=O)(=O)c2ccc(C(F)(F)F)cc2I)c(=O)n1C [Compound 1.895]	very good herbidical action	very good herbicidal action
CCCOc1nn(C(=O)NS(=O)(=O)c2c(I)cccc2OC(C)C)c(=O)n1C [Compound 1.255]	very good herbidical action	very good herbicidal action
CCCOc1nn(C(=O)NS(=O)(=O)c2c(I)cccc2OC(C)C(F)(F)F)c(=O)n1C (stereo not shown) [Compound 1.526]	very good herbidical action	very good herbicidal action
CCOc1nn(C(=O)NS(=O)(=O)c2ccc(C)c(F)c2I)c(=O)n1C1CC1 [Compound 1.860]	very good herbidical action	very good herbicidal action
CC(C)Oc1nn(C(=O)NS(=O)(=O)c2c(I)cccc2OC(F)F)c(=O)n1C [Compound 1.465]	very good herbidical action	very good herbicidal action

SMILES	herbicidal action against weed plants (visual scoring of plant damage or emergence damage) [1]	herbicidal action against weed plants (effect scored visually) [2]
CCCOc1nn(C(=O)NS(=O)(=O)c2c(C)cccc2I)c(=O)n1C1CC1 [Compound 1.044]	very good herbidical action	very good herbicidal action
CCCOc1nn(C(=O)NS(=O)(=O)c2c(I)cccc2OC(C)C(F)(F)F)c(=O)n1C1CC1 (stereo not shown) [Compound 1.535]	very good herbidical action	very good herbicidal action
COc1nn(C(=O)NS(=O)(=O)c2c(I)cccc2OCC2CC2)c(=O)n1C [Compound 1.346]	very good herbidical action	very good herbicidal action
CCCOc1nn(C(=O)NS(=O)(=O)c2c(Cl)cc(C(F)(F)F)cc2I)c(=O)n1C1CC1 [Compound 1.848]	very good herbidical action	very good herbicidal action
CCCCc1ccc(S(=O)(=O)NC(=O)n2nc(OCCC)n(C3CC3)c2=O)c(I)c1 [Compound 1.888]	very good herbidical action	very good herbicidal action
CCC(C)Oc1cccc(I)c1S(=O)(=O)NC(=O)n1nc(OC)n(C2CC2)c1=O (stereo not shown) [Compound 1.286]	very good herbidical action	very good herbicidal action
CC(C)Oc1nn(C(=O)NS(=O)(=O)c2c(Cl)ccc(Cl)c2I)c(=O)n1C [Compound 1.852]	very good herbidical action	very good herbicidal action
CCOc1nn(C(=O)NS(=O)(=O)c2c(Cl)cc(C(F)(F)F)cc2I)c(=O)n1C [Compound 1.843]	very good herbidical action	very good herbicidal action
CCC(C)Oc1cccc(I)c1S(=O)(=O)NC(=O)n1nc(OC)n(C)c1=O (stereo not shown) [Compound 1.281]	very good herbidical action	very good herbicidal action
CCCOc1nn(C(=O)NS(=O)(=O)c2c(I)cccc2SC)c(=O)n1C [Compound 1.581]	very good herbidical action	very good herbicidal action
CCOc1nn(C(=O)NS(=O)(=O)c2ccccc2I)c(=O)n1C [Compound 1.004]	very good herbidical action	very good herbicidal action
CCCOc1nn(C(=O)NS(=O)(=O)c2c(I)cccc2OCC(F)(F)C(F)(F)F)c(=O)n1C [Compound 1.549]	very good herbidical action	very good herbicidal action
CCOc1nn(C(=O)NS(=O)(=O)c2c(I)cccc2OC)c(=O)n1C1CC1 [Compound 1.191, 4-Cyclopropyl-3-ethoxy-N-[(2-iodo-6-methoxyphenyl)sulfonyl]-5-oxo-4,5-dihydro-1H-1,2,4-triazole-1-carboxamide]	very good herbidical action	very good herbicidal action
CCOc1nn(C(=O)NS(=O)(=O)c2c(I)cccc2SC)c(=O)n1C1CC1 [Compound 1.585]	very good herbidical action	very good herbicidal action
COc1nn(C(=O)NS(=O)(=O)c2ccccc2I)c(=O)n1C [Compound 1.001]	very good herbidical action	very good herbicidal action
CCOc1nn(C(=O)NS(=O)(=O)c2c(I)cccc2OC(F)(F)F)c(=O)n1C [Compound 1.443]	very good herbidical action	very good herbicidal action
CCOc1nn(C(=O)NS(=O)(=O)c2ccc(C(F)(F)F)cc2I)c(=O)n1C [Compound 1.890]	very good herbidical action	very good herbicidal action
CCOc1nn(C(=O)NS(=O)(=O)c2c(I)cccc2OCC(C)C)c(=O)n1C1CC1 [Compound 1.295]	very good herbidical action	very good herbicidal action
CC(C)Oc1nn(C(=O)NS(=O)(=O)c2ccc(Cl)cc2I)c(=O)n1C [Compound 1.872]	very good herbidical action	very good herbicidal action
